“Also recorded” adds a separate entry of the source.
How the values were obtained:
[1] = system: human DCs co-cultured with UWB1.289; experiment: Co-culture of human DCs with olaparib-treated UWB1.289 cells; type: cell-based; conditions: BRCA1-deficient UWB1.289
Protocol: Bone marrow cells were isolated from FVB/NJ mice and cultured in RPMI-1640 containing 10% FBS and 20 ng/ml GM-CSF. BMDCs (bone marrow derived dendritic cells) were harvested for in vitro co-culture assay on day 7 to day 10. About 3×10^5 PBM or PPM tumor cells were cultured in a 6-well plate for 24 hr. and then treated with DMSO or olaparib. After 24 hr incubation with DMSO, olaparib, or olaparib in combination with other drugs (cell cycle inhibitor or apoptosis inhibitor), drugs were removed and tumor cells were washed twice with PBS. BMDCs were added and co-cultured with PBM or PPM cells at a ratio of 1:1 in 1.5 ml culture media in the presence of GM-CSF (20 ng/ml) and lipofectamine (2 μl) for 24 hr. Co-cultured cells were harvested for flow cytometry analysis and floating cells (percentage of BMDCs is about 90%), or RNA analysis. Cell culture supernatants were collected for detection of IFN-β with the ELISA kit. BMDCs generated from C57BL/6J mice were applied for the coculture of BMDCs with ID8 tumor cells. Human dendritic cells purchased from Lonza were used for the coculture of human DCs with DMSO or olaparib-treated human ovarian cancer cells ([…] and UWB1.289+BRCA1).

PBM cells = experiment: Cytosolic dsDNA (PicoGreen) and micronuclei staining, PBM cells; type: cell-based, mouse; conditions: 2.5 μM, 24 h
Protocol: PBM and PPM cells were cultured on chambered cell culture slides (BD Falcon). Cells were treated with 2.5 μM olaparib or vehicle control (DMSO) for 24 hours. Following the treatment, cells were incubated with culture media containing PicoGreen double-stranded DNA stain (200-fold dilution, Life Technologies). After one-hour incubation, cells were fixed with 4% paraformaldehyde in PBS (Santa Cruz Biotechnology) for 10 minutes. Cells were then washed twice with PBS and stained with 300 nM DAPI (Thermo Fisher Scientific) for 10 minutes. Coverslips were mounted using ProLong Diamond Antifade Mountant (Thermo Fisher Scientific). Staining was imaged using a Leica SP5X laser scanning confocal microscope.

[2] = system: Brca1-proficient and Brca1-deficient tumor cells; experiment: Measurement of IC50 value in tumor cells (MTS, 72 h); type: cell-based; conditions: three pairs of models; for gemcitabine except PPM and PBM cells
Protocol: Tumor cells were seeded in 96-well plates at a density of 1000-3000/well and allowed to adhere overnight. Cells were then exposed to appropriate concentrations of therapeutic agents (or vehicle control) with continuous exposure for 72 h. Growth inhibition was measured by CellTiter Aqueous MTS reagent from Promega by comparing the absorbance at 490 nm of drug-treated cells to that of untreated controls set at 100%. 1C50 values were calculated using non-linear regression model (logarithmic inhibitor vs. normalized response-variable slope) in Graphpad Prism 7.

[3] = system: PBM tumors (Trp53−/−; Brca1−/−; c-Myc); experiment: Orthotopic PBM tumor allograft growth and survival (bioluminescence); type: in vivo, mouse
Protocol: All animal experiments described in this study were performed according to the animal protocols approved by the DFCI Institutional Animal Care and Use Committee. Brca1^loxP/loxP [FVB/N] mice, bearing loxP sites in introns 4 and 13 of the Brca1 gene, and Trp53^loxP/loxP[FVB/N] mice bearing loxP in introns 2 and 10 of the p53 gene, were obtained from Dr. Jos Jonkers's laboratory (Netherlands Cancer Institute, Amsterdam, The Netherlands). These mice were intercrossed through multiple generations to create a colony of homozygous Trp53^loxP/loxP/Brca1^loxP/loxP double conditional knockout mice. Ovaries were harvested from 8-week-old female Trp53^loxP/loxP/Brca1^loxP/loxP mice. The ovaries were washed twice with phosphate-buffered and incubated in DMEM/F12 (Ham's) medium containing collagenase and dispase (stem cell technologies) for 40 min at 37° C. The epithelial cells were pelleted by centrifugation at 800×g and cultured in DMEM/F12 (Life Technologies) supplemented with 4% (vol/vol) FBS, 1% penicillin/streptomycin, 10 ng/mL EGF, 5 μg/mL insulin, 5 Cpg/mL transferrin, and 5 ng/mL sodium selenite. Ovarian surface epithelial (OSE) cells were cultured for 48 hr and then introduced with Adeno-Cre (University of Iowa) and lentiviruses expressing C-Myc gene (Addgene #36980) or control GFP. After two days of infection in vitro, OSE cells are aggregated and implanted into recipient mice. About 5×10^5 OSE cells (Trp53^−/−; Brca1^−/−; c-Myc) were injected into the right ovarian bursal cavities of 6- to 7-week-old female nude mice. In each mouse, the left ovarian bursa was injected with GFP-expressing OSE cells (Trp53^−/−; Brca1^−/−; GFP). PBM (Trp53^−/−; Brca1^−/−; c-Myc) ovarian tumors developed within three to six months after implantation of the genetically engineered OSE cells. The primary ovarian tumors were digested and orthotopically transplanted to FVB/NJ mice. The PPM GEM model (Trp53^−/−; Pten^−/−; c-Myc) was developed with OSE cells isolated from homozygous Trp53^loxP/loxP/Pten^loxP/loxP(FVB/NJ) double conditional knockout mice using the same strategy for generation of the PBM GEM model described above. For histological analysis, tumor pieces were fixed in 10% Formalin overnight and transferred to 70% ethanol. Embedding, sectioning and H&E staining was performed by scientists at the Harvard rodent histopathology core facility. The histological characteristics of high grade ovarian tumor were confirmed by two independent pathologists at Harvard Medical School.
Single cells were obtained by digestion of primary ovarian tumors in collagenase buffer and then cultured in MOT media (DMEM/F12, 0.6% FBS, 10 ng/ml EGF, hydrocortisone 1 μg/ml, cholera toxin 1 ng/ml, 100 μg/ml penicillin-streptomycin, 5 μM Y27632). […] The endpoints were determined by tumor burden and ascites. […]

In the case of `O=C(c1cc(Cc2n[nH]c(=O)c3ccccc23)ccc1F)N1CCN(C(=O)C2CC2)CC1` [olaparib, Olaparib], the “levels of p-TBK1+p-IRF3+ and IFN-β in human DCs” value [1] is reported as “Increased levels”, the “cytosolic dsDNAs and micronuclei” value (PBM cells) is reported as “increased” and the “IC50 values, Brca1-deficient lines in comparison to Brca1-proficient counterparts” value [2] is reported as “much more sensitive”. For the same compound, the “tumor growth / tumor progression (tumor burden by bioluminescence)” value ([3]; PBM tumor-bearing FVB mice, olaparib 50 mg/kg daily i.p., anti-PD-1 250 μg/mouse i.p. every 3 days) was “significantly delayed tumor progression; also recorded: delayed tumor growth; also recorded: effectively inhibit the growth”, the “therapeutic effect of olaparib in Rag1−/− host mice” value ([3]; PBM tumors in Rag1−/− vs wild-type FVB mice) was “partially abrogated” and the “survival of PBM tumor-bearing mice” value ([3]; mouse, in vivo) was “significantly prolonged the survival; also recorded: eventually succumbed to the disease”.

— patent publication US20200268864A1, “CANCER VACCINE COMPOSITIONS AND METHODS FOR USING SAME TO TREAT CANCER” (Dana-Farber Cancer Institute, Inc., priority 2017, published 2020)
